From patent US9125928B2, “Agent for suppressing the formation of abnormal skin cells caused by exposure to light” (OTSUKA PHARMACEUTICAL CO., LTD., priority 2010, dated 2015)

How the values were obtained:
JB6 cells = test: Amount of cyclobutane pyrimidine dimers (CPD) in genomic DNA of UV-B irradiated JB6 cells, by ELISA; assay type: cell-based, mouse; settings: 15 mJ/cm^2 UV-B, 48 h
Method: In this Example, normal mouse epidermal cells were irradiated with ultraviolet light, and then cultured in an AMP2Na-containing culture medium. Using the amount of cyclobutane pyrimidine dimers (CPD) as an index, the action of AMP2Na to reduce DNA mutation was examined.
Normal mouse epidermal cell-derived JB6 cells (purchased from ATCC) were cultured in an FBS-containing MEM culture medium until subconfluent. Subsequently, 4×10^5 cultured cells were seeded into a 3.5 cm-dish with MEM (minimum essential medium) culture medium containing FBS (fetal bovine serum). Next day after the seeding, the culture medium was replaced with a serum-free MEM culture medium for serum starvation. Subsequently, the culture medium was replaced with PBS, followed by the irradiation with 15 mJ/cm^2 of UV-B. After ultraviolet irradiation, the culture medium was replaced with serum-free MEM culture medium containing 0.01 mM, 0.1 mM, or 1 mM AMP2Na or AMP2Na-free culture-medium (control). After the replacement of the culture medium, the cells were cultured with 5% CO2 at 37° C. for 48 hours, and then collected.
Genomic DNA was extracted from the collected cells using a FastPure (trademark) DNA kit (Takara Bio Inc.). The extraction was carried out in accordance with the kit manual.
The amount of CPD in genomic DNA extracted from each cell was measured using ELISA. In particular, the extracted genomic DNA was heated at 100° C. for 10 minutes, and cooled on ice. Subsequently, genomic DNA was dispensed (50 μL/well) into a 96-well microplate coated with protamine sulfate, and dried. The following day, each of the wells was washed with PBS-T (PBS with Tween 20), and FBS-containing PBS was dispensed into each of the wells. The wells were then kept for 30 minutes at 37° C. […] Subsequently, the absorbance values at 492 nm were measured, and the amount of CPD in genomic DNA was calculated to determine the rate of change of CPD (variation in the relative amount of CPD; %) under each condition when the amount of CPD in the case of cultivation in the AMP2Na-free culture medium was assigned a value of 100%.

Hos:HR-1 mice = test: Preventive effect on skin cancer in ultraviolet light-irradiated hairless mice; assay type: in vivo; settings: 3% AMP2Na in 20% ethanol aqueous solution, 0.1 mL on the back twice a day, 5 days a week
Method: In this Example, hairless mice were irradiated with ultraviolet light, and the preventive effect of AMP2Na against photocarcinogenesis in the mice was examined.
5-week-old female Hos:HR-1 mice were purchased from Japan SLC, Inc., and from the age of 7 weeks, ultraviolet light (UV-B) irradiation was performed on their back. The ultraviolet irradiation (irradiation amount per time: 60 mJ/cm^2) was performed once a day, 5 days a week, for 12 weeks.
Then, a 20% ethanol aqueous solution containing 3% of AMP2Na dissolved therein (test solution) and a 20% ethanol aqueous solution containing no AMP2Na (base) were prepared.
After feeding the ultraviolet light-irradiated mice under normal conditions for 1 week, the mice were divided into 3 groups (6 mice in each group) under the conditions shown in Table 1, and fed for 12 weeks.
The development of tumors was determined, and the number of tumors was counted.

caspase 3 = test: Caspase 3 activity in human epidermal keratinocytes treated with AMP2Na, with or without UV-B irradiation; assay type: cell-based
From the text: The present Example examined a change in the caspase activity when human epidermal cells treated with disodium adenosine 5′-monophosphate (AMP2Na) were irradiated with ultraviolet light.
Human epidermal keratinocytes (purchased from Kurabo Industries Ltd.) were precultured using EpiLife-KG2 culture medium (produced by Kurabo Industries Ltd.) in 10 cm collagen-coated petri dishes (produced by Asahi Glass Co., Ltd.), and seeded at a density of 30,000 cells/well into a collagen-coated 96-well microplate. After cultivation in the EpiLife-KG2 culture medium for 8 hours, the culture medium was replaced with EpiLife culture medium (produced by Kurabo Industries Ltd.), followed by cultivation for an additional 16 hours. Subsequently, the culture medium was replaced with AMP2Na-containing culture medium adjusted to various concentrations. […] Subsequently, the activity of caspase 3 expressed in the cells were measured using a SensoLyte™ Rh110 Caspase 3 Assay Kit (produced by AnaSpec, Inc.). […] Further, in order to examine influences that AMP2Na affect the caspase activity of normal cells, caspase activity of the cells that were not irradiated with UV-B but treated with AMP2Na was determined. […]

[1] = 6th week from start of application

Nc1ncnc2c1ncn2[C@@H]1O[C@H](COP(=O)([O-])[O-])[C@@H](O)[C@H]1O.[Na+].[Na+] [AMP2Na, disodium adenosine 5′-monophosphate]
relative amount of CPD (JB6 cells; then 0.1 mM AMP2Na, versus control): decrease in the relative amount of CPD compared to the control group was significant | relative amount of CPD (JB6 cells; then 1 mM AMP2Na, versus control): decrease in the relative amount of CPD compared to the control group was significant | relative amount of CPD (JB6 cells; then AMP2Na added (0.01, 0.1 or 1 mM), AMP2Na-free control = 100%): decreased compared to the control group | average number of tumors developed per mouse (Hos:HR-1 mice; [1]): 0 | tumor formation on the back of the mice (Hos:HR-1 mice; [1]): not in the test solution-applied group | tumor incidence (Hos:HR-1 mice; [1]): 0% | tumor incidence (Hos:HR-1 mice; 12th week from start of application): 17% | caspase activity (caspase 3; human epidermal keratinocytes pretreated 2 h with AMP2Na, then 30 mJ/cm^2 UV-B, measured after 6 h cultivation): significant increase in the caspase activity | caspase activity (caspase 3; non-ultraviolet-irradiated human epidermal keratinocytes, 2 h treatment with AMP2Na-containing medium at various concentrations): almost no increase in the caspase activity
